{
  "source": "patent US11752193B2",
  "about": "“Administering methylation-controlled J protein (MCJ) SIRNA to a kidney cell” (University of Vermont and State Agricultural College, priority 2012, dated 2023)",
  "test_system": "MCF7/siMCJ cells",
  "test": "Intracellular ATP levels in MCF7/siMCJ cells after incubation with rotenone",
  "format": "cell-based, human",
  "conditions": "rotenone 10 μM, 4 h, versus medium (FIG. 3B)",
  "protocol": "CD8 T cells and CD4 T cells were purified from spleen and lymph nodes by negative selection as previously described (Auphan et al., 1998 J Immunol 160, 4810-4821; Conze et al., 2002 J Exp Med 195, 811-823), and by positive selection using the MACS system as recommended by the manufacturer (Miltenyi Biotec, Cambridge, Mass.). Purified T cells were stimulated with plate-bound anti-CD3 (2C11) (5 μg/ml) and soluble anti-CD28 (1 μg/ml) (BD Biosciences, Sparks, Md.) mAbs. Proliferation assays were performed using purified CD8 T cells (10^5 cells/well) activated with anti-CD3 and anti-CD28 and labeled with [^3H]-thymidine as previously described (Conze et al., 2002 J Exp Med 195, 811-823). MCF7, MCF7/siMCJ, and 293T cell lines were maintained as previously described (Hatle et al., 2007 Mol Cell Biol 27, 2952-2966). Rotenone (used at 10 μM) was purchased from Sigma Aldrich (St. Louis, Mo.). Transfection of 293T cells by calcium phosphate was performed as previously described (Hatle et al., 2007 Mol Cell Biol 27, 2952-2966).\nThe levels of intracellular ATP were determined using […] cells (CD8 T cells, MCF7 cells, 293T cells) per sample and the ATPlite® Luminescence ATP Detection Assay System (PerkinElmer®, Waltham, Mass.) following the recommendations from the manufacturer and a TD-20/20 luminometer (Turner Biosystems, Promega®, Madison, Wis.). […]",
  "data": [
    {"smiles": "C=C(C)[C@H]1Cc2c(ccc3c2O[C@@H]2COc4cc(OC)c(OC)cc4[C@@H]2C3=O)O1", "note": "[rotenone, Rotenone]", "values": [
      {"measurement": "levels of ATP", "value": "abrogated the levels of ATP"}
    ]}
  ]
}
